In patent publication US5686424A, “2-oxoethyl derivatives as immunosuppressants” (Miles Inc., priority 1995, dated 1997) one finds IC50 data, which are given here for 20 compounds.

By IC50 is commonly meant the point on the concentration scale where inhibition reaches its midpoint.

Like-named read-outs stand apart in the source and are kept apart here.

One experiment addresses FKBP (Homo sapiens, UniProt P62942). As to the kind of experiment: PPIase Inhibition Assay. In kind it is biochemical. The protocol: 1) Inhibition of PPIase Activity
This assay follows in principle the procedure described in Kofron et al., 1991, Biochemistry 30:6127.
The three main reagents used are PPIase, a substrate for PPIase, and a selected inhibitor compound of the present invention. The basic principle behind this assay is the conversion of the cis isomer of the substrate to the trans form, which conversion is catalyzed by PPIase. Essentially, inhibition of this PPIase activity is measured for the selected compounds. A peptide chymotrypsin substrate containing a proline in the P2 position is only cleaved by chymotrypsin when the Phe-Pro bond is in the trans isomeric configuration. In the presence of excess chymotrypsin, all of the trans peptide isomers are cleaved within approximately five seconds, leaving only cis forms.
The cis peptide will spontaneously convert to the trans isomer at a slow rate. The cis to trans conversion is catalyzed by isomerases at a much faster rate than this spontaneous conversion. Proteins with PPIase activity are examples of such isomerases. After isomerization, the peptide is cleaved by chymotrypsin releasing p-nitroaniline which can be monitored at 390 nm. The rate of release is then calculated using a first order rate plus offset equation utilizing the ENZFITTER program (Leatherbarrow, BIOSOFT, Cambridge, United Kingdom).
In a plastic cuvette are added 950 ul of ice cold assay buffer (25 mM HEPES, pH 7.8, 100 mM NaCl), 10 uL of FKBP (2.5 uM in 10 mM Tris-Cl pH 7.5, 100 mM NaCl, 1 mM dithiothreitol), 25 ul of chymotrypsin (50 mg/ml in 1 mM HCl) and 10 ul of the test compound at various concentrations in dimethyl sulphoxide. The reaction is initiated by addition of 5 ul of substrate (Succinyl-Ala-Phe-Pro-Phe-para-nitroanilide, 5 mg/ml in 235 mM LiCl in trifluoroethanol).
The absorbance at 390 nm versus time is monitored for 90 sec using a Beckman DU70 spectrophotometer. The absorbance versus time data files are transferred to an IBM XT computer and the rate constants determined using the commercial enzfitter program. For each set of data, the uncatalyzed rate of conversion is measured and the uninhibited enzymatic rate determined. The data are expressed as % Activity remaining and are calculated as follows:
% Activity Remaining=(kobs -kuncat)/(kuninh
where kobs is the rate in the presence of a selected test compound, kuncat is the rate in the absence of enzyme, and kuninh is the rate in the presence of enzyme
Data was plotted as the velocity in the absence of the inhibitor (V-) divided by the velocity in the presence of inhibitor (V+) versus the inhibitor concentration. The IC50 can be determined following linear regression as the inhibitor concentration where

The next experiment concerns human T-cells. As to the kind of experiment: Suppression of Human T-Cell Proliferation Assay (PHA-stimulated, [3H]-thymidine incorporation). Particulars: read-out: IC50. In kind it is cell-based. From the text:
2) Human T Lymphocyte Inhibition
Inhibition of mitogen-induced T-cell proliferation can be used to profile immunosuppressive activity of test compounds. In the description of the assay which follows, mitogen-induced T-cell activation was used to test the inhibitory potencies of select compounds of the present invention.
In an assay similar to that described by Bradley in Mishell et al. (Eds.), 1980, Selected Methods in Cellular Immunology, pp 156-161, W. H. Freeman & Co., San Fransisco, Calif., T-cells were stimulated by incubation with phytohemagglutinin (PHA) which binds to cell surface molecules, including the T-cell receptor. This stimulation results in proliferation which can be measured by incorporation of [^3 H]-thymidine into cellular DNA.
The immunosuppressive properties of the compounds of the present invention can be determined by adding various concentrations of the compounds to these cultures and measuring the effect on T-cell proliferation.
Suppression of Human T-Cell Proliferation Assay
Fresh LeukoPaks were obtained from the New York Blood Center, New York, N.Y. The cells, including erythrocytes and leukocytes, were diluted with Hank's Balanced Salt Solution (HBSS) (GIBCO, Grand Island, N.Y.) and layered over Lymphoprep (Nycomed Pharma AS, Oslo, Norway) in sterile 50 ml conical centrifuge tubes. Lymphocytes were isolated at the Hank's/Nycomed interface after centrifugation at 2000×g, 4° C. for 15 min. The lymphocytes were washed with Minimal Essential Medium (GIBCO) containing 2% fetal bovine serum (FBS) (Sigma Chemical Co., St. Louis, Mo.), 1% HEPES buffer (GIBCO) and 1% Penicillin-Stretomycin solution (GIBCO).
T-cells were further purified essentially by sheep erythrocyte (SRBC) rosetting as described by Morimoto et al., 1983, J. Immunol. 130:157. The isolated lymphocytes were adjusted to 2×10^7 cells/ml and 5 ml aliquots of the cell suspension were incubated for 10 minutes at room temperature with 5 ml of a 5% SRBC (Cappel, Organon Technika Corp., West Chester, Pa.) suspension. The cells were gently pelleted by centrifugation at 300 rpm for 10 minutes, followed by a 1 hour incubation at room temperature to allow rosette formation. The cells were gently resuspended,layered over Lymphoprep and centrifuged for 30 minutes at 500×g. The pellet, containing rosetted T-cells and SRBC was treated with ice cold buffered ammonium chloride (GIBCO) to lyse the erythrocytes. T-cells were washed twice with HBSS.
Purified T-cells were resuspended at 2×10^6 cells/ml in complete culture medium composed of RPMI-1640 (Whittaker Bioproducts, Walkerville, Md.) with 10% FBS (Sigma), 2 mM L-glutamine (GIBCO), 1% Penicillin-Streptomycin (GIBCO) and 15 mM HEPES (GIBCO). In 96-well plates (Becton Dickinson, Lincoln Park, N.J.), 0.1 ml aliquots of T-cell suspension were mixed with 0.05 ml of 40 μg/ml PHA-M (Sigma). The compounds of this invention were dissolved in dimethylsulfoxide at 10 mM and various dilutions in complete medium were added in duplicate wells (0.05 ml/well). The plates were incubated at 37° C. in a humidified atmosphere of 5% carbon dioxide and 95% air for 72 hours.
Proliferation was assessed by measurement of [^3 H]-thymidine incorporation. During the last 6 hours of incubation, the cells were pulse labelled with 1 μCi/well of [^3 H]-thymidine (New England Nuclear, Boston, Mass.). The cells were harvested onto glass fiber paper using a plate harvester and the radioactivity incorporated into cellular DNA corresponding to individual wells was measured by standard liquid scintillation counting methods.
For orientation: Incorporation of labelled thymidine or its analogues reports DNA synthesis.

Setting [1] is: concentration of inhibitor required for 50% inhibition of enzyme activity, FKBP, substrate Succinyl-Ala-Phe-Pro-Phe-para-nitroanilide, TABLE I.
[2] abbreviates: concentration inhibiting [3H]-thymidine incorporation of PHA-stimulated T-cells by 50%, 72 hours, TABLE 2.

Chain of FKBP (P62942 whole entry): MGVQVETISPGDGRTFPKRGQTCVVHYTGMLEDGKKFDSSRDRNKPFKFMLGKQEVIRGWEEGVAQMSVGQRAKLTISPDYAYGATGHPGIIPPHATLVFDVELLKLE

In the case of `C/C=C/C=C/COC(=O)CN1CCC[C@H]1C(=O)N[C@H](C(=O)NCc1ccccc1)[C@@H](C)CC` (relative stereo) [Example 12, L-Isoleucine, N-[1-(2-(trans,trans-Hexa-2,4-dienyl-1-oxy)-2-Oxoethyl)-L-Prolyl] Benzylamide], the results for the IC50 on FKBP (setting [1]) and in the experiment with human T-cells (setting [2]) were 5.8 µM and 35 µM, respectively. Turning to `CC[C@H](C)[C@H](NC(=O)[C@@H]1CCCN1CC(=O)OCc1ccccc1)C(=O)NCc1ccccc1` [Example 5, L-Isoleucine, N-[1-(2-Benzyloxy-2-Oxoethyl)-L-Prolyl] Benzylamide], the IC50 on FKBP (setting [1]) was found to be 2.2 µM.

Regarding `CC[C@H](C)[C@H](NC(=O)[C@@H]1CCCN1CC(=O)OC)C(=O)NCc1ccccc1` [Example 6, L-Isoleucine, N-[1-(2-Methoxy-2-Oxoethyl)-L-Prolyl] Benzylamide], on FKBP, the IC50 is less than 50 µM.

As to `CC[C@H](C)[C@H](NC(=O)[C@@H]1CCCN1CC(=O)c1ccccc1)C(=O)NCc1ccccc1` [Example 7, L-Isoleucine, N-[1-(2-Phenyl-2-Oxoethyl)-L-Prolyl] Benzylamide], the concentration for half-maximal inhibition (IC50) at FKBP (setting [1]) is 2.7 µM; in the experiment on human T-cells (setting [2]), less than 50 µM. Regarding `CC[C@H](C)[C@H](NC(=O)[C@@H]1CCCN1CC(=O)c1ccc2ccccc2c1)C(=O)NCc1ccccc1` [Example 8, L-Isoleucine, N-[1-(2-Naphth-2-yl-2-Oxoethyl)-L-Prolyl] Benzylamide], the figures for the half-inhibitory concentration (IC50) on FKBP (setting [1]) and in the experiment on human T-cells (setting [2]) were 3.4 µM and 50 µM, respectively.

For `CC[C@H](C)[C@H](NC(=O)[C@@H]1CCCN1CC(=O)c1ccc(-c2ccccc2)cc1)C(=O)NCc1ccccc1` [Example 9, L-Isoleucine, N-[1-(2-(Biphenyl-4-yl)-2-Oxoethyl)-L-Prolyl] Benzylamide], the IC50 was less than 50 µM on FKBP and 50 µM with human T-cells.

As for `CC[C@H](C)[C@H](NC(=O)[C@@H]1CCCN1CC(=O)c1sc2ccc(Cl)cc2c1C)C(=O)NCc1ccccc1` [Example 11, L-Isoleucine, N-[1-(2-(5-Chloro-3-Methyl-benzo[B]thiophene-2-yl)-2-Oxoethyl)-L-Prolyl] Benzylamide], the IC50 was found to be 50 µM against FKBP (setting [1]) and 34 µM in the experiment on human T-cells (setting [2]). With `CC[C@H](C)[C@H](NC(=O)[C@@H]1CCCN1CC(=O)c1ccc(Cl)cc1)C(=O)NCc1ccccc1` [Example 13, L-Isoleucine, N-[1-(2-(4-Chlorophenyl)-2-Oxoethyl)-L-Prolyl] Benzylamlde], the IC50 was less than 50 µM at FKBP (setting [1]) and more than 50 µM in the experiment with human T-cells (setting [2]). `CC[C@H](C)[C@H](NC(=O)[C@@H]1CCCN1CC(=O)c1ccc(C)cc1)C(=O)NCc1ccccc1` [Example 14, L-Isoleucine, N-[1-(2-(4-Methylphenyl)-2-Oxoethyl)-L-Prolyl] Benzylamide]: the IC50 is less than 50 µM at FKBP (setting [1]) and more than 50 µM with human T-cells (setting [2]).

On to `CC[C@H](C)[C@H](NC(=O)[C@@H]1CCCN1CC(=O)c1ccc(OC)cc1)C(=O)NCc1ccccc1` [Example 15, L-Isoleucine, N-[1-(2-(4-Methoxylphenyl)-2-Oxoethyl)-L-Prolyl] Benzylamide], for which the IC50 against FKBP (setting [1]) was less than 50 µM; with human T-cells (setting [2]) it was 17 µM. At FKBP (setting [1]), `CC[C@H](C)[C@H](NC(=O)[C@@H]1CCCN1CC(=O)c1ccc(OC)cc1OC)C(=O)NCc1ccccc1` [Example 28, L-Isoleucine, N-[1-(2-(2,4-Dimethoxyphenyl)-2-Oxoethyl)-L-Prolyl] Benzylamide] returned an IC50 of less than 50 µM.

`CC[C@H](C)[C@H](NC(=O)[C@@H]1CCCN1CC(=O)c1ccccc1[N+](=O)[O-])C(=O)NCc1ccccc1` [Example 29, L-Isoleucine, N-[1-(2-(2-Nitrophenyl)-2-Oxoethyl)-L-Prolyl] Benzylamide] had an IC50 against FKBP (setting [1]) of less than 50 µM. In the case of `CC[C@H](C)[C@H](NC(=O)[C@@H]1CCCN1CC(=O)c1ccc([N+](=O)[O-])cc1)C(=O)NCc1ccccc1` [Example 30, L-Isoleucine, N-[1-(2-(4-Nitrophenyl)-2-Oxoethyl)-L-Prolyl] Benzylamide], on FKBP (setting [1]), the half-inhibitory concentration (IC50) was less than 50 µM. As to `CC[C@H](C)[C@H](NC(=O)[C@@H]1CCCN1CC(=O)c1ccc(-c2ccccc2)cc1)C(=O)N1CCc2ccccc2C1` [Example 50, L-Isoleucine, N-[1-(2-(Biphenyl-4-yl)-2-Oxoethyl)-L-Prolyl] 1,2,3,4-Tetrahydroisoquinolinamide], 50 µM corresponded to half-maximal inhibition against FKBP (IC50).

With `CC[C@H](C)[C@H](NC(=O)[C@@H]1CCCN1CC(=O)c1ccc(-c2ccccc2)cc1)C(=O)OCc1ccccc1` [Example 51, L-Isoleucine, N-[1-(2-(Biphenyl-4-yl)-2-Oxoethyl)-L-Prolyl] Benzyl Ester], on FKBP, the IC50 is more than 50 µM. The same measure, in the same setting: for `CSCC[C@H](NC(=O)[C@@H]1CCCN1CC(=O)c1ccc(-c2ccccc2)cc1)C(=O)NCc1ccccc1` [Example 54, L-Methionine, N-[1-(2-(Biphenyl-4-yl)-2-Oxoethyl)-L-Prolyl] Benzylamide] the value was more than 50 µM. Take `CCOC(=O)C1CCCN(C(=O)CN2CCC[C@H]2C(=O)N[C@H](C(=O)NCc2ccccc2)[C@@H](C)CC)C1` (stereo partly drawn) [Example 72, L-Isoleucine, N-[1-[2-[N-(Piperidine-3-Carboxylic Acid Ethyl Ester)]-2-Oxoethyl]-L-Prolyl] Benzylamide]: at FKBP (setting [1]), the IC50 was less than 5 µM. `CC[C@H](C)[C@H](NC(=O)[C@@H]1CCCN1CC(=O)NC1CCCC1)C(=O)NCc1ccccc1` [Example 79, L-Isoleucine, N-[1-[2-(N-Cyclopentylamino)-2-Oxoethyl]-L-Prolyl] Benzylamide] showed an IC50 at FKBP (setting [1]) of more than 5 µM. The same measure, in the same setting: as for `CC[C@H](C)[C@H](NC(=O)[C@@H]1CCCN1CC(=O)NCc1ccccc1)C(=O)NCc1ccccc1` [Example 80, L-Isoleucine, N-[1-[2-(N-(Phenylmethylamino))-2-Oxoethyl]-L-Prolyl] Benzylamide], the figure is more than 5 µM; as for `CC[C@H](C)[C@H](NC(=O)[C@@H]1CCCN1CC(=O)NCC1CCCCC1)C(=O)NCc1ccccc1` [Example 81, L-Isoleucine, N-[1-[2-(N-(Cyclohexylmethylamino))-2-Oxoethyl]-L-Prolyl] Benzylamide], more than 5 µM.
